Reference: US12252524B2, “GIP/GLP1 co-agonist compounds” (Eli Lilly and Company, priority 2018, dated 2025)
Numbered stars: 1 amine (or outer) side, 2 acyl side, 3 side chain; on linkers, the order of the positions; unused ones are H or OH. Square brackets hold non-standard residues; d marks the D form. Side chains are listed from the residue outwards. Peptide text beside a SMILES is read from it. * marks the point of attachment. C20 diacid = O=C(O)CCCCCCCCCCCCCCCCCCC(=O)*; αMePhe(2-F) = C[C@](N)(Cc1ccccc1F)C(=O)O; γGlu = O=C(O)[C@H](CCC(=O)[*:2])N[*:1]; αMeF = C[C@](N)(Cc1ccccc1)C(=O)O; αMeL = CC(C)C[C@](C)(N)C(=O)O; AEEA = NCCOCCOCC(=O)O; Aib = CC(C)(N)C(=O)O

Legend:
[1] = target: human GLP-1 receptor (GLP-1R) (Homo sapiens, UniProt P43220); assay: cAMP pharmacological functional assay in presence of casein, hGLP-1R; assay type: cell-based; settings: HEK293 cells expressing hGLP-1R, 0.1% Casein, geometric mean; read-out: hGLP1R cAMP Rel EC50 nM (SEM, n)
Chain of human GLP-1 receptor (GLP-1R) (P43220 24-463): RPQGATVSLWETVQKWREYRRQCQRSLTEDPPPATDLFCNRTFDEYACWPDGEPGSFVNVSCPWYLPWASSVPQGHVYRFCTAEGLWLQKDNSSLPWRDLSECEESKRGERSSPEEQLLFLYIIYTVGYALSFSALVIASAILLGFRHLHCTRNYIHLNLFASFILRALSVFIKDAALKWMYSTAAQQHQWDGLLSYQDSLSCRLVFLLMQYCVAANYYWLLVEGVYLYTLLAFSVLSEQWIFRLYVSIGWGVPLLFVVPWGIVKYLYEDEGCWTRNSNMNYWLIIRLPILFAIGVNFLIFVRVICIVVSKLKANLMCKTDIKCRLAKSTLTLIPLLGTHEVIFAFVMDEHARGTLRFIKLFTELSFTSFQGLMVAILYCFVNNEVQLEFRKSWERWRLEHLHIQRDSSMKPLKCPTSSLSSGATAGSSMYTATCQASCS

human GIP receptor = target: T1, human GIP receptor (Homo sapiens, UniProt P48546); assay: [125I]-GIP binding (SPA), human GIP receptor; settings: read-out: hGIPR Ki, nM (SEM, n)
T1 construct: expressed in transfected cells; crude membranes
T1 sequence (P48546 22-466): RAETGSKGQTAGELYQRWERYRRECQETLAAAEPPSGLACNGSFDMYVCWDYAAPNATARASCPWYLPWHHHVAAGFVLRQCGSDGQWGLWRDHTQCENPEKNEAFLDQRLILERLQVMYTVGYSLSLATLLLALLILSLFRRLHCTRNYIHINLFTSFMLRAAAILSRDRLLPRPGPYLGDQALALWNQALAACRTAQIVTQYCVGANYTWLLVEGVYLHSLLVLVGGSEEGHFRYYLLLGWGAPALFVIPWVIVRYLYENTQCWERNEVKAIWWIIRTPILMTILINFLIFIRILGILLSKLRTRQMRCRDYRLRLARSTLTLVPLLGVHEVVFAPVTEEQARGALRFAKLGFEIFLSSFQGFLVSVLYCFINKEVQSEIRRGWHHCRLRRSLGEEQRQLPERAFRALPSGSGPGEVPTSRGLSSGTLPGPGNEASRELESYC

human GLP-1R = human GLP-1R (Homo sapiens, UniProt P43220); assay: [125I]-GLP-1 binding (SPA), human GLP-1 receptor; parameters: expressed in transfected cells; crude membranes; settings: read-out: hGLP1R Ki, (nM) (SEM, n)
Chain of human GLP-1R (P43220 24-463): as the sequence (P43220 24-463) above
How it was run: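 Membranes: hypotonic lysis (50 mM Tris HCl, pH 7.5, protease inhibitors), Potter-Elvehjem homogenization, high-speed pellet (35000×g 1 h or 25000×g 30 min, 4° C.). Buffer: 25 mM HEPES pH 7.4, 2.5 mM CaCl2, 1 mM MgCl2. Four-parameter IC50 fit; Ki as geometric mean ± SEM.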

[2] = target: T2, gastric inhibitory peptide receptor (GIPR) (Homo sapiens, UniProt P48546); assay: cAMP pharmacological functional assay in presence of casein, hGIPR; assay type: cell-based; settings: HEK293 cells expressing hGIPR, 0.1% Casein, geometric mean; read-out: hGIPR cAMP Rel EC50 nM (SEM, n)
T2 sequence (P48546 22-466): T1 sequence (P48546 22-466)

human Gcg receptor = target: T3, human Gcg receptor (Homo sapiens, UniProt P47871); assay: [125I]-Glucagon binding (SPA), human Gcg receptor; settings: read-out: hGLcgR Ki, nM (SEM, n)
T3 construct: expressed in transfected cells; crude membranes
T3 sequence (P47871 26-477): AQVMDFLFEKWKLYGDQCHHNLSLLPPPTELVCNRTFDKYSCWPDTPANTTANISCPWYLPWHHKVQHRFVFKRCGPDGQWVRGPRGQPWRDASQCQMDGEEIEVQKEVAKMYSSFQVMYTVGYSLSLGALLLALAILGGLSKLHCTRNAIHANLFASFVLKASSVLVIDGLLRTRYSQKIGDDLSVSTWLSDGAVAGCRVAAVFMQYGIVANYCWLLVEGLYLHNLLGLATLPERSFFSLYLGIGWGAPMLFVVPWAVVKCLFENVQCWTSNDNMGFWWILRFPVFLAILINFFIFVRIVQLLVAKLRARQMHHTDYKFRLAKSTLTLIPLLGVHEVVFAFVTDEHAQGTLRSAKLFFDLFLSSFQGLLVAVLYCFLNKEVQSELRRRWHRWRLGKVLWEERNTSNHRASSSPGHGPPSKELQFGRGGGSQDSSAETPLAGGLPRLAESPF
How it was run: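 Crude membranes from cells expressing the receptor, prepared by hypotonic lysis in 50 mM Tris HCl pH 7.5 with protease inhibitors, homogenization and differential centrifugation, were used in a WGA-bead SPA. Binding buffer: 25 mM HEPES pH 7.4, 2.5 mM CaCl2, 1 mM MgCl2, bacitracin, Tween-20.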

Question: How did the EC50 [1] turn out when `CC[C@H](C)[C@H](NC(=O)[C@H](CCCCN)NC(=O)[C@H](CC(=O)O)NC(=O)[C@H](CCCCNC(=O)COCCOCCNC(=O)COCCOCCNC(=O)CC[C@H](NC(=O)CCCCCCCCCCCCCCCCCCC(=O)O)C(=O)O)NC(=O)[C@H](CC(C)C)NC(=O)[C@@H](NC(=O)[C@H](CO)NC(=O)[C@H](Cc1ccc(O)cc1)NC(=O)[C@H](CC(=O)O)NC(=O)[C@H](CO)NC(=O)[C@@H](NC(=O)[C@](C)(Cc1ccccc1)NC(=O)[C@@H](NC(=O)CNC(=O)[C@H](CCC(=O)O)NC(=O)C(C)(C)NC(=O)[C@@H](N)Cc1ccc(O)cc1)[C@@H](C)O)[C@@H](C)O)[C@@H](C)CC)C(=O)N[C@@H](C)C(=O)N[C@@H](CCC(N)=O)C(=O)NC(C)(C)C(=O)N[C@@H](C)C(=O)N[C@@H](Cc1ccccc1)C(=O)N[C@H](C(=O)N[C@@H](CCC(=O)O)C(=O)N[C@@H](Cc1ccc(O)cc1)C(=O)N[C@@H](CC(C)C)C(=O)N[C@H](C(=O)N[C@@H](CCC(=O)O)C(=O)NCC(=O)NCC(N)=O)[C@@H](C)CC)[C@@H](C)CC` [Example 93] (H-Y[Aib]EGT[αMeF]TSDYSILK([AEEA-AEEA-γGlu-C20 diacid])DKIAQ[Aib]AFIEYLIEGG-NH2) was run?
Answer: 0.115 nM

Question: And the Ki (human GIP receptor)?
Answer: 0.0859 nM

Question: What about the Ki (human GLP-1R) of the same compound?
Answer: 1.89 nM

Question: And the EC50 [2]?
Answer: 0.185 nM

Question: What about the Ki (human Gcg receptor) of the same compound?
Answer: 15.7 nM

Question: For `CC[C@H](C)[C@H](NC(=O)[C@H](CC(C)C)NC(=O)[C@H](Cc1ccc(O)cc1)NC(=O)[C@H](CCC(=O)O)NC(=O)[C@@H](NC(=O)[C@H](Cc1ccccc1)NC(=O)[C@H](C)NC(=O)C(C)(C)NC(=O)[C@H](CCC(N)=O)NC(=O)[C@H](C)NC(=O)[C@H](CCCCNC(=O)COCCOCCNC(=O)COCCOCCNC(=O)CC[C@H](NC(=O)CCCCCCCCCCCCCCCCCCC(=O)O)C(=O)O)NC(=O)[C@H](CCCCN)NC(=O)[C@H](CC(=O)O)NC(=O)[C@H](CC(C)C)NC(=O)[C@](C)(CC(C)C)NC(=O)[C@@H](NC(=O)[C@H](CO)NC(=O)[C@H](Cc1ccc(O)cc1)NC(=O)[C@H](CC(=O)O)NC(=O)[C@H](CO)NC(=O)[C@@H](NC(=O)[C@](C)(Cc1ccccc1)NC(=O)[C@@H](NC(=O)CNC(=O)[C@H](CCC(=O)O)NC(=O)C(C)(C)NC(=O)[C@@H](N)Cc1ccc(O)cc1)[C@@H](C)O)[C@@H](C)O)[C@@H](C)CC)[C@@H](C)CC)C(=O)N[C@@H](CCC(=O)O)C(=O)NCC(=O)NCC(N)=O` [Example 99] (H-Y[Aib]EGT[αMeF]TSDYSI[αMeL]LDKK([AEEA-AEEA-γGlu-C20 diacid])AQ[Aib]AFIEYLIEGG-NH2), which EC50 [1] is on record?
Answer: 0.0986 nM

Question: What about the Ki (human GIP receptor) of the same compound?
Answer: 0.027 nM

Question: And the Ki (human GLP-1R)?
Answer: 1.15 nM

Question: And the EC50 [2]?
Answer: 0.0643 nM

Question: What about the Ki (human Gcg receptor) of the same compound?
Answer: 23.6 nM

Question: How did the EC50 [1] turn out when `CC[C@H](C)[C@H](NC(=O)[C@H](CC(C)C)NC(=O)[C@H](Cc1ccc(O)cc1)NC(=O)[C@H](CCC(=O)O)NC(=O)[C@@H](NC(=O)[C@H](Cc1ccccc1)NC(=O)[C@H](C)NC(=O)C(C)(C)NC(=O)[C@H](CCC(N)=O)NC(=O)[C@H](C)NC(=O)[C@H](CCCCNC(=O)COCCOCCNC(=O)COCCOCCNC(=O)CC[C@H](NC(=O)CCCCCCCCCCCCCCCCCCC(=O)O)C(=O)O)NC(=O)[C@H](CCC(=O)O)NC(=O)[C@H](CC(=O)O)NC(=O)[C@H](CC(C)C)NC(=O)[C@](C)(CC(C)C)NC(=O)[C@@H](NC(=O)[C@H](CO)NC(=O)[C@H](Cc1ccc(O)cc1)NC(=O)[C@H](CC(=O)O)NC(=O)[C@H](CO)NC(=O)[C@@H](NC(=O)[C@](C)(Cc1ccccc1)NC(=O)[C@@H](NC(=O)CNC(=O)[C@H](CCC(=O)O)NC(=O)C(C)(C)NC(=O)[C@@H](N)Cc1ccc(O)cc1)[C@@H](C)O)[C@@H](C)O)[C@@H](C)CC)[C@@H](C)CC)C(=O)N[C@@H](CCC(=O)O)C(=O)NCC(=O)NCC(N)=O` [Example 100] (H-Y[Aib]EGT[αMeF]TSDYSI[αMeL]LDEK([AEEA-AEEA-γGlu-C20 diacid])AQ[Aib]AFIEYLIEGG-NH2; N-terminus assumed) was run?
Answer: 0.079 nM

Question: What about the Ki (human GIP receptor) of the same compound?
Answer: 0.115 nM

Question: What about the Ki (human GLP-1R) of the same compound?
Answer: 4.13 nM

Question: And the EC50 [2]?
Answer: 0.12 nM

Question: And the Ki (human Gcg receptor)?
Answer: 44 nM

Question: `CC[C@H](C)[C@H](NC(=O)[C@H](CC(C)C)NC(=O)[C@H](Cc1ccc(O)cc1)NC(=O)[C@H](CCC(=O)O)NC(=O)[C@@H](NC(=O)[C@H](Cc1ccccc1)NC(=O)[C@H](C)NC(=O)C(C)(C)NC(=O)[C@H](CCC(N)=O)NC(=O)[C@H](C)NC(=O)[C@H](CCCCNC(=O)COCCOCCNC(=O)COCCOCCNC(=O)CC[C@H](NC(=O)CCCCCCCCCCCCCCCCCCC(=O)O)C(=O)O)NC(=O)[C@H](CCC(=O)O)NC(=O)[C@H](CC(=O)O)NC(=O)[C@H](CC(C)C)NC(=O)C(C)(C)NC(=O)[C@@H](NC(=O)[C@H](CO)NC(=O)[C@H](Cc1ccc(O)cc1)NC(=O)[C@H](CC(=O)O)NC(=O)[C@H](CO)NC(=O)[C@@H](NC(=O)[C@](C)(Cc1ccccc1F)NC(=O)[C@@H](NC(=O)CNC(=O)[C@H](CCC(=O)O)NC(=O)C(C)(C)NC(=O)[C@@H](N)Cc1ccc(O)cc1)[C@@H](C)O)[C@@H](C)O)[C@@H](C)CC)[C@@H](C)CC)C(=O)N[C@@H](CCC(=O)O)C(=O)NCC(=O)NCC(N)=O` [Example 101] (H-Y[Aib]EGT[αMePhe(2-F)]TSDYSI[Aib]LDEK([AEEA-AEEA-γGlu-C20 diacid])AQ[Aib]AFIEYLIEGG-NH2) was tested. Which EC50 [1] did it give?
Answer: 0.0579 nM

Question: What about the Ki (human GIP receptor) of the same compound?
Answer: 0.0953 nM

Question: What about the Ki (human GLP-1R) of the same compound?
Answer: 8.1 nM

Question: What about the EC50 [2] of the same compound?
Answer: 0.0704 nM

Question: What about the Ki (human Gcg receptor) of the same compound?
Answer: 117 nM

Question: Which EC50 [1] does the source give for `CC[C@H](C)[C@H](NC(=O)[C@H](CC(C)C)NC(=O)[C@H](Cc1ccc(O)cc1)NC(=O)[C@H](CCC(=O)O)NC(=O)[C@@H](NC(=O)[C@H](Cc1ccccc1)NC(=O)[C@H](CCC(=O)O)NC(=O)C(C)(C)NC(=O)[C@H](CCC(N)=O)NC(=O)[C@H](C)NC(=O)[C@H](CCCCNC(=O)COCCOCCNC(=O)COCCOCCNC(=O)CC[C@H](NC(=O)CCCCCCCCCCCCCCCCCCC(=O)O)C(=O)O)NC(=O)[C@H](CCC(=O)O)NC(=O)[C@H](CC(=O)O)NC(=O)[C@H](CC(C)C)NC(=O)[C@](C)(CC(C)C)NC(=O)[C@@H](NC(=O)[C@H](CO)NC(=O)[C@H](Cc1ccc(O)cc1)NC(=O)[C@H](CC(=O)O)NC(=O)[C@H](CO)NC(=O)[C@@H](NC(=O)[C@](C)(Cc1ccccc1F)NC(=O)[C@@H](NC(=O)CNC(=O)[C@H](CCC(=O)O)NC(=O)C(C)(C)NC(=O)[C@@H](N)Cc1ccc(O)cc1)[C@@H](C)O)[C@@H](C)O)[C@@H](C)CC)[C@@H](C)CC)C(=O)N[C@@H](CCC(=O)O)C(=O)NCC(=O)NCC(N)=O` [Example 103] (H-Y[Aib]EGT[αMePhe(2-F)]TSDYSI[αMeL]LDEK([AEEA-AEEA-γGlu-C20 diacid])AQ[Aib]EFIEYLIEGG-NH2; N-terminus assumed) here?
Answer: 0.101 nM

Question: What about the Ki (human GIP receptor) of the same compound?
Answer: 0.0645 nM

Question: What about the Ki (human GLP-1R) of the same compound?
Answer: 6.68 nM

Question: And the EC50 [2]?
Answer: 0.0693 nM

Question: What about the Ki (human Gcg receptor) of the same compound?
Answer: 40.3 nM
